The test system of one data set is S. aureus ATCC 29213. The experiment in a line: Antibacterial screening, broth microdilution (MIC/MBC). Type of data set: cell-based, Staphylococcus aureus. The following applies: for MIC: S. aureus ATCC 29213, MHB, 24 h, 35 °C; for MBC: S. aureus ATCC 29213. How it is done: (§1) The antimicrobial activities of a series of compounds 1–5 were tested through the utilization of seven reference species, encompassing both Gram-positive (Staphylococcus aureus ATCC 29213, Staphylococcus epidermidis ATCC 12228, Micrococcus luteus ATCC 10240) and Gram-negative (Escherichia coli ATCC 25922, Klebsiella pneumoniae ATCC 13883, Proteus mirabilis ATCC 12453, Acinetobacter baumannii ATCC 19606) bacteria as model microorganisms. For this purpose, microbial suspensions were prepared in sterile saline (0.85% NaCl) with an optical density of 0.5 McFarland standard, yielding a concentration of 150 × 10^6 CFU/mL (CFU, colony-forming units). All of the stock solutions of the tested compounds were dissolved in DMSO. Amoxicillin (Glentham Life Sciences Ltd., Corsham, UK) was used as a positive control.
(§2) The MIC values of the tested compounds were determined by serial twofold dilutions of 1–5 in Mueller Hinton Broth (MHB, Biomaxima, Lublin, Poland). The range of final 1–5 concentrations used was from 0.49 up to 1000 μg/mL, and for amoxicillin from 0.12 up to 250 μg/mL in the 96-well microtiter plates (Medlab, Raszyn, Poland), starting with 98 μL MHB and 2 μL bacterial inoculum added to each well. Positive controls consisted of 100 μL MHB in each well with the tested compounds at the same concentration range. The negative controls consisted of 100 μL of MHB only. Each set of tests and controls was established with three replicates. The microtiter plates were then subjected to an incubation period of 24 h at a temperature of 35 ± 2 °C. After incubation, the optical density of the microbial growth was measured at a wavelength of 600 nm using a microplate reader, the Biotek Elx800 (BioTek Instruments, Inc., Winooski, VT, USA). The MIC value was defined as the lowest concentration of the tested compound at which there was no visible growth of the tested microorganisms. The determination of the MIC values was achieved by employing the broth microdilution method, in accordance with the recommendations of the European Committee on Antimicrobial Susceptibility Testing (EUCAST). […] Then, the MHA plates were incubated overnight at 35 ± 2 °C. […] The MIC and MBC values were reported in μg/mL, according to the EUCAST reference.
For orientation: Dilution methods test growth across graded concentrations, often in twofold steps.

Another data set concerns P. mirabilis ATCC 12453. The description is as above. Type of data set: cell-based, Proteus mirabilis. The following applies: for MIC: P. mirabilis ATCC 12453, MHB, 24 h, 35 °C. How it is done: as §1, §2
For another data set, the system named is E. coli ATCC 25922. Described as above. Type of data set: cell-based, Escherichia coli. The following applies: for MIC: E. coli ATCC 25922, MHB, 24 h, 35 °C. How it is done:
as §1, §2

A further data set concerns K. pneumoniae ATCC 13883. Described as above. The format is cell-based, Klebsiella pneumoniae. The following applies: for MIC: K. pneumoniae ATCC 13883, MHB, 24 h, 35 °C. How it is done:
as §1, §2

In another data set the test system is M. luteus ATCC 10240. The data set is described as above. Type of data set: cell-based, Micrococcus luteus. The following applies: for MIC: ATCC10240, 24 h, M. luteus ATCC 10240, MHB, 24 h, 35 °C; for MBC: M. luteus ATCC 10240. How it is done:
as §1, §2

The subject of data set [1] is S. epidermidis ATCC 12228. The description is as above. The following applies: for MIC: S. epidermidis ATCC 12228, MHB, 24 h, 35 °C. The format is cell-based, Staphylococcus epidermidis. How it is done: as §1, §2
The next data set has as its system A. baumannii ATCC 19606. The data set is described as above. The format is cell-based, Acinetobacter baumannii. The following applies: for MIC: A. baumannii ATCC 19606, MHB, 24 h, 35 °C. How it is done: as §1, §2
The nature of data set [2]: Cytotoxicity, microculture tetrazolium (MTT) test, VERO. The following applies: African green monkey, ATCC CCL-81; VERO (normal kidney cells), 24 h incubation, MTT; ± SD. Type of data set: cell-based. How it is done: (§3) The cytotoxicity of biaryl monophosphines was tested in vitro in normal (VERO) and cancer-derived (H1HeLa) cells after 24 h of incubation using a microculture tetrazolium test. Table 2 presents the CC50 (concentrations decreasing the cellular viability by 50%) values calculated from dose–response cytotoxicity curves (Figure 4).
(§4) Cytotoxicity was evaluated using a microculture tetrazolium test as previously described, and details can be found in the Supplementary Materials. The cell lines used in the presented study were acquired from the American Type Culture Collection (ATCC); the one used for cytotoxicity testing included non-cancerous VERO (kidney; ATCC CCL-81) cells and cancer-originating H1HeLa (cervical adenocarcinoma; ATCC CRL-1958) cells. VERO cells were cultured in Dulbecco’s Modified Eagle’s Medium (DMEM; Corning, Tewksbury, MA, USA), while Eagle’s Minimum Essential Medium (MEM; Corning) was used for H1HeLa. Antibiotics (penicillin–streptomycin solution, Corning) and fetal bovine serum (FBS, Corning) were added to cell media. Cells were incubated in a 5% CO2 atmosphere at 37 °C (CO2 incubator, Panasonic Healthcare Co., Tokyo, Japan). Briefly, the monolayers of VERO or H1HeLa cells in 96-well plates (Falcon, Corning) were treated with serial dilutions of selected compounds for 24 h. After this, the medium was removed, the plates were washed with phosphate buffered saline (PBS; Corning), a 10% solution of (3-(4,5-dimethylthiazol-2-yl)-2,5-diphenyltetrazolium bromide (MTT; Sigma-Aldrich, St. Louis, MO, USA) (5 mg/mL) in FBS-free cell media was added, and the incubation continued for the next 4 h. Subsequently, the precipitated formazan crystals were dissolved, and after overnight incubation at 37 °C, the Synergy H1 Multi-Mode Microplate Reader (BioTek Instruments, Inc., Winooski, VT, USA) with Gen5 software (ver. 3.09.07; BioTek Instruments, Inc.) was used for absorbance acquisition (540 and 620 nm). Data was exported to GraphPad Prism (ver. 10) to calculate the CC50 values (50% cytotoxic concentration) from dose–response curves.
(§5) Aromaticity Tuning in Biaryl Monophosphines and Their Derivatives […]
(§6) Cell line maintenance and in vitro experiments
(§7) The cytotoxicity of selected biaryl monophosphines was evaluated in vitro towards normal VERO (ATCC, CCL-81) cells and cancer-derived cell line H1HeLa (cervical adenocarcinoma; ATCC (American Type Culture Collection) CRL-1958) using 3-(4,5-dimethylthiazol-2-yl)-2,5-diphenylte-trazolium bromide (MTT) based protocol.
(§8) Media used for in vitro culturing included Dulbecco's Modified Eagle's Medium (DMEM, Corning, Tewksbury, MA, USA) used for VERO cells and Modified Eagle Medium (MEM, Corning) used for H1HeLa. Cell media used in the experiments were supplemented with antibiotics (Penicil-lin-Streptomycin Solution, Corning) and fetal bovine serum (FBS, Corning) – 10% (cell passaging) and 2% (cell maintenance and experiments). Phosphate-buffered saline (PBS) and trypsin were bought from Corning, whereas MTT (3-(4,5-dimethylthiazol-2-yl)-2,5-diphenyltetrazolium bromide) from Sigma (Sigma-Aldrich, St. Louis, MO, USA). SDS was purchased from PanReac Applichem (Darmstadt, Germany). Incubation was carried out in a 5% CO2 atmosphere at 37°C (CO2 incubator, Panasonic Healthcare Co., Tokyo, Japan).
(§9) Concentrations of cells for passaging were as follows: VERO – 1.5*10^5 cells/mL, H1HeLa – 2*10^5 cells/mL. Routine observations of cell cultures and experiments were carried out using an in-verted microscope (CKX41, Olympus Corporation, Tokyo, Japan) equipped with a ca mera (Moti-cam 3+, Motic, Hong Kong), and the results were recorded (Motic Images Plus 2.0, Motic).
(§10) Stock solutions of biaryl monophosphines were prepared by dissolving the samples in cell culture grade DMSO (PanReac Applichem).
(§11) Evaluation of cytotoxicity
(§12) Cytotoxicity was tested using an MTT-based protocol. The cells were passaged into 96-well plates (Falcon, TC-treated, Corning) and, after overnight incubation, treated with serial dilutions of […]

Data set [3] is described as follows: Cytotoxicity, microculture tetrazolium (MTT) test, H1HeLa. The format is cell-based. The conditions noted are these: human, H1HeLa cells (cervical adenocarcinoma, ATCC CRL-1958); H1HeLa (cervical adenocarcinoma), 24 h incubation, MTT; ± SD. How it is done: as §3, §4, §5, §6, §7, §8, §9, §10, §11, §12
The subject of a further data set is VERO cells. Description: Cytotoxicity, microculture tetrazolium (MTT) test, VERO. The format is cell-based. How it is done: as §3, §4, §5, §6, §7, §8, §9, §10, §11, §12
Another data set concerns H1HeLa cells. Description: Cytotoxicity, microculture tetrazolium (MTT) test, H1HeLa. Type of data set: cell-based. How it is done:
as §3, §4, §5, §6, §7, §8, §9, §10, §11, §12

Where [4] appears, read: Staphylococcus aureus, ATCC29213, read-out: MIC.
[5] abbreviates: Staphylococcus aureus, ATCC29213, read-out: MBC.
Setting [6] is: Proteus mirabilis, ATCC12453, read-out: MIC.
The mark [7] stands for this setting: Escherichia coli, ATCC25922, read-out: MIC.
Where [8] appears, read: Klebsiella pneumoniae, ATCC13883, read-out: MIC.
[9] abbreviates: Micrococcus luteus, ATCC10240, read-out: MBC.
Setting [10] is: Staphylococcus epidermidis, ATCC12228, read-out: MIC.
Where [11] appears, read: Staphylococcus epidermidis, ATCC12228, S. epidermidis ATCC 12228, read-out: MBC.
The mark [12] stands for this setting: Acinetobacter baumannii, ATCC19606, read-out: MIC.

In brackets after ≈: the same amount, converted by molar mass. Where two headings read alike, the source gives them in different places.

As a reminder, the MIC is the smallest concentration in the dilution series that meets the test's criterion for growth inhibition. As a reminder, the MBC is the smallest concentration meeting the test's criterion for killing. In general, CC50 refers to the concentration giving 50% cytotoxicity.

`CC1(C)S[C@@H]2[C@H](NC(=O)[C@H](N)c3ccc(O)cc3)C(=O)N2[C@H]1C(=O)O` [Amox, Amoxicillin, reference compound]: the MIC with S. aureus ATCC 29213 (setting [4]) was 0.98 µg/mL (≈ 2.68 µM); in the data set with P. mirabilis ATCC 12453 (setting [6]), 0.49 µg/mL (≈ 1.34 µM); with E. coli ATCC 25922 (setting [7]), 3.91 µg/mL (≈ 10.7 µM); in the data set on K. pneumoniae ATCC 13883 (setting [8]) it was 250 µg/mL (≈ 684 µM); against M. luteus ATCC 10240 (Micrococcus luteus), 31.2 µg/mL (≈ 85.5 µM); in data set [1] (setting [10]) it was 31.2 µg/mL (≈ 85.5 µM). Further, the MIC in the data set with A. baumannii ATCC 19606 (setting [12]) came to 125 µg/mL (≈ 342 µM). The MBC was found to be 0.98 µg/mL (≈ 2.68 µM) in the data set with S. aureus ATCC 29213 (setting [5]); 0.49 µg/mL (≈ 1.34 µM) against P. mirabilis ATCC 12453 (Proteus mirabilis, ATCC12453, P. mirabilis ATCC 12453); 7.81 µg/mL (≈ 21.4 µM) against E. coli ATCC 25922 (Escherichia coli, ATCC25922, E. coli ATCC 25922); 250 µg/mL (≈ 684 µM) in the data set with K. pneumoniae ATCC 13883 (Klebsiella pneumoniae, ATCC13883, K. pneumoniae ATCC 13883); 31.2 µg/mL (≈ 85.5 µM) in the data set with M. luteus ATCC 10240 (setting [9]); 31.2 µg/mL (≈ 85.5 µM) in data set [1] (setting [11]). This compound also returned an MBC against A. baumannii ATCC 19606 (Acinetobacter baumannii, ATCC19606, A. baumannii ATCC 19606) of 125 µg/mL (≈ 342 µM).
On to `COc1ccccc1-c1c(P(=O)(C2CCCCC2)C2CCCCC2)c(O)c2ccccc2c1O` [Compound 4, 2-(Dicyclohexylphosphoryl)-3-(2-methoxyphenyl)naphthalene-1,4-diol], for which the CC50 at 24 h in [2] is 4.7 ± 0.41 µg/mL; in data set [3] it was 5.53 ± 0.12 µg/mL. Besides, the MIC in the data set with S. aureus ATCC 29213 (setting [4]) is 250 µg/mL (≈ 522 µM); in the data set on P. mirabilis ATCC 12453 (setting [6]), 1000 µg/mL (≈ 2090 µM); with E. coli ATCC 25922 (setting [7]), 500 to 1000 µg/mL (≈ 1040 to 2090 µM); in the data set with K. pneumoniae ATCC 13883 (setting [8]), 500 µg/mL (≈ 1040 µM); against M. luteus ATCC 10240 (Micrococcus luteus), 15.6 to 31.2 µg/mL (≈ 32.7 to 65.3 µM); in [1] (setting [10]), 500 µg/mL (≈ 1040 µM). Further, the MIC with A. baumannii ATCC 19606 (setting [12]) turned out to be 1000 µg/mL (≈ 2090 µM). The MBC (in the data set with S. aureus ATCC 29213 (setting [5]); in the data set with M. luteus ATCC 10240 (setting [9]); in data set [1] (setting [11])) was over 1000 µg/mL throughout.
For the compound “Dicyclohexyl[1,4-dimethoxy-3-(2,4,6-trimethoxyphenyl)naphthalen-2-yl]phosphane [Compound 5]”, the CC50 in the data set on VERO cells is on record as 89.88 ± 4.11 µg/mL; with H1HeLa cells, 200.85 ± 13.08 µg/mL. The minimal bactericidal concentration (MBC) with S. aureus ATCC 29213 was over 1000 µg/mL; against M. luteus ATCC 10240 it was 125 µg/mL; in data set [1] (S. epidermidis ATCC 12228), 1000 µg/mL. The minimal inhibitory concentration (MIC) against S. aureus ATCC 29213 was 125 to 250 µg/mL; against P. mirabilis ATCC 12453 it was over 1000 µg/mL; in the data set with E. coli ATCC 25922, over 1000 µg/mL; in the data set on K. pneumoniae ATCC 13883 it was over 1000 µg/mL; in [1], 31.25 to 62.5 µg/mL; with A. baumannii ATCC 19606, 1000 µg/mL. For the same compound, in [1] (S. epidermidis ATCC 12228), the “type of activity (bactericidal or bacteriostatic)” value is “bactericidal”.
